Like-named read-outs stand apart in the source and are kept apart here.
Experiments:
Assay in all cases: biochemical
Set-up in all cases: KINOMEscan active site-directed competition binding assay (DiscoveRx), 456 kinases, per cent of control at 300 nM
Settings in all cases: read-out: Percent of Control (%)
DMPK2 = molecular target: T1, DMPK2 (Homo sapiens, UniProt Q6DT37)
T1 construct: gene CDC42BPG
Method: (§1) Kinase selectivity of T-474 and T-418 was evaluated at 300 nmol/L using a panel of 456 kinases at DiscoveRx (KINOMEscan). The platform employs an active site-directed competition binding assay to quantitatively measure interactions between test compounds and kinases. […] In VCaP prostate cancer cells, treatment with T-474 or T-418 suppressed the phosphorylation of the known CDK8 substrate STAT1 at Ser727 both in the absence and in the presence of IFN-γ (Figure 1B), which stimulates CDK8-mediated STAT1 phosphorylation.

MRCKA = molecular target: T2, MRCKA (Homo sapiens, UniProt Q5VT25)
T2 construct: gene CDC42BPA
Method: as §1

CDKL2 = CDKL2 (Homo sapiens, UniProt Q92772)
Method: as §1

RIPK4 = RIPK4 (Homo sapiens, UniProt P57078)
Method: as §1

ACVR2B = ACVR2B (Homo sapiens, UniProt Q13705)
Method: as §1

SRMS = SRMS (Homo sapiens, UniProt Q9H3Y6)
Method: as §1

ICK = molecular target: T3, ICK (Homo sapiens, UniProt Q9UPZ9)
T3 construct: gene CILK1
Method: as §1

YANK2 = molecular target: T4, YANK2 (Homo sapiens, UniProt Q9NY57)
T4 construct: gene STK32B
Method: as §1

PIK3CA = PIK3CA (Homo sapiens, UniProt P42336)
Method: as §1

p38-alpha = molecular target: T5, p38-alpha (Homo sapiens, UniProt Q16539)
T5 construct: gene MAPK14
Method: as §1

[1] = molecular target: T6, RSK3(Kin.Dom.1-N-terminal) (Homo sapiens, UniProt Q15349)
T6 construct: gene RPS6KA2; Kin.Dom.1-N-terminal
Method: as §1

TEC = TEC (Homo sapiens, UniProt P42680)
Method: as §1

MAP3K3 = MAP3K3 (Homo sapiens, UniProt Q99759)
Method: as §1

RIOK3 = RIOK3 (Homo sapiens, UniProt O14730)
Method: as §1

NEK2 = NEK2 (Homo sapiens, UniProt P51955)
Method: as §1

MYLK2 = MYLK2 (Homo sapiens, UniProt Q9H1R3)
Method: as §1

FGFR3(G697C) = FGFR3(G697C) (Homo sapiens, UniProt P22607, G697C)
Method: as §1

RIOK2 = RIOK2 (Homo sapiens, UniProt Q9BVS4)
Method: as §1

YANK3 = molecular target: T7, YANK3 (Homo sapiens, UniProt Q86UX6)
T7 construct: gene STK32C
Method: as §1

ITK = ITK (Homo sapiens, UniProt Q08881)
Method: as §1

ACVR2A = ACVR2A (Homo sapiens, UniProt P27037)
Method: as §1

PFCDPK1(P.falciparum) = molecular target: T8, PFCDPK1(P.falciparum) (Plasmodium falciparum, UniProt P62344)
T8 construct: gene CDPK1
Method: as §1

PIK3CA, sequence (P42336 whole entry): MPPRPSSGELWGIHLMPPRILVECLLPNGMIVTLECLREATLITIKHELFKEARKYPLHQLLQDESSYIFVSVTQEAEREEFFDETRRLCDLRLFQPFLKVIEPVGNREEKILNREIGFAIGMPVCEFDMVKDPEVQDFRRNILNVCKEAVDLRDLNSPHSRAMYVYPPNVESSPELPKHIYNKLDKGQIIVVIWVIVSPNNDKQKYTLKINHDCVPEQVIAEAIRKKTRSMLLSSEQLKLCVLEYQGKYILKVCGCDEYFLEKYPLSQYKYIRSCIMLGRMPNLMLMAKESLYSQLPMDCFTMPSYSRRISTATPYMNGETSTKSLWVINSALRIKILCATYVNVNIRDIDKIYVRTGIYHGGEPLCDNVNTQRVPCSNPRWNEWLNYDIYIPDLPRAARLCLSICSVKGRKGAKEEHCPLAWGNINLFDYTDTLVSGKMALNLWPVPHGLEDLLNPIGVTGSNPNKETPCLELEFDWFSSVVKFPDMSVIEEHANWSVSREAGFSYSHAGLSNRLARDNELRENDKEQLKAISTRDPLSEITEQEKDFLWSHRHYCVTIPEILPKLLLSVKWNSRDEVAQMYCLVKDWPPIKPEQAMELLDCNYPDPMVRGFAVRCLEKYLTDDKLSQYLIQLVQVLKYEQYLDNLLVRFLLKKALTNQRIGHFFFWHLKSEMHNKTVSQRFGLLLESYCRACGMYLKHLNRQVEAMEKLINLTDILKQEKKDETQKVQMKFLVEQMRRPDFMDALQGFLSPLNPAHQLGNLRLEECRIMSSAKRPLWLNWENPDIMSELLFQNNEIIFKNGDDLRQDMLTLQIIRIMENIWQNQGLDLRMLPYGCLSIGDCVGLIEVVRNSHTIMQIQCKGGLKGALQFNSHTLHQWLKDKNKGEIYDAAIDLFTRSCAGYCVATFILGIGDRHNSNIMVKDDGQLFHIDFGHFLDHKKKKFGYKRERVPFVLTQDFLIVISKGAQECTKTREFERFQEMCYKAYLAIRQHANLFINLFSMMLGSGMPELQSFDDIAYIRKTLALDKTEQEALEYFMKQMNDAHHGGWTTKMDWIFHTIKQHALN
FGFR3(G697C), sequence (P22607 whole entry G697C): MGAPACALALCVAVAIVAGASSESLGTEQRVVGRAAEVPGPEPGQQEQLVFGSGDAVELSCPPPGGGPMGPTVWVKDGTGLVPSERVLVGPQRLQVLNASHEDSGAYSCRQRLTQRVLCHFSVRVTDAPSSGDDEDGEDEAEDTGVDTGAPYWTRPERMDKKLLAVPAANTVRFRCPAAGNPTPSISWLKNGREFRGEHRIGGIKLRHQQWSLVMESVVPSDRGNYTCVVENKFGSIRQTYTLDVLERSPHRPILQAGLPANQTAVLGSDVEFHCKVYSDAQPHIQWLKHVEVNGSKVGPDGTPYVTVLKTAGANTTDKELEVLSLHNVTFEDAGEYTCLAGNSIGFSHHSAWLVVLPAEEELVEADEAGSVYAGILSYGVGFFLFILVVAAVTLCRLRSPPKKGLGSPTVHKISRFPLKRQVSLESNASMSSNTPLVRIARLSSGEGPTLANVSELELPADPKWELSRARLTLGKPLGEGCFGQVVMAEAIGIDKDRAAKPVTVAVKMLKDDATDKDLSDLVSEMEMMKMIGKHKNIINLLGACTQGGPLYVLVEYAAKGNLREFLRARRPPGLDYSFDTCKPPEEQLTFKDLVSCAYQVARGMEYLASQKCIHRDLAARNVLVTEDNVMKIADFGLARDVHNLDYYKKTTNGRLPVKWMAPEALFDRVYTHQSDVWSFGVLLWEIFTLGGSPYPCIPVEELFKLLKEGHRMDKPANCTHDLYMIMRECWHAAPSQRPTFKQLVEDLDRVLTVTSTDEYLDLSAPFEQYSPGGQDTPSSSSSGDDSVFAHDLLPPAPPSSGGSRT
T1 sequence (Q6DT37 whole entry): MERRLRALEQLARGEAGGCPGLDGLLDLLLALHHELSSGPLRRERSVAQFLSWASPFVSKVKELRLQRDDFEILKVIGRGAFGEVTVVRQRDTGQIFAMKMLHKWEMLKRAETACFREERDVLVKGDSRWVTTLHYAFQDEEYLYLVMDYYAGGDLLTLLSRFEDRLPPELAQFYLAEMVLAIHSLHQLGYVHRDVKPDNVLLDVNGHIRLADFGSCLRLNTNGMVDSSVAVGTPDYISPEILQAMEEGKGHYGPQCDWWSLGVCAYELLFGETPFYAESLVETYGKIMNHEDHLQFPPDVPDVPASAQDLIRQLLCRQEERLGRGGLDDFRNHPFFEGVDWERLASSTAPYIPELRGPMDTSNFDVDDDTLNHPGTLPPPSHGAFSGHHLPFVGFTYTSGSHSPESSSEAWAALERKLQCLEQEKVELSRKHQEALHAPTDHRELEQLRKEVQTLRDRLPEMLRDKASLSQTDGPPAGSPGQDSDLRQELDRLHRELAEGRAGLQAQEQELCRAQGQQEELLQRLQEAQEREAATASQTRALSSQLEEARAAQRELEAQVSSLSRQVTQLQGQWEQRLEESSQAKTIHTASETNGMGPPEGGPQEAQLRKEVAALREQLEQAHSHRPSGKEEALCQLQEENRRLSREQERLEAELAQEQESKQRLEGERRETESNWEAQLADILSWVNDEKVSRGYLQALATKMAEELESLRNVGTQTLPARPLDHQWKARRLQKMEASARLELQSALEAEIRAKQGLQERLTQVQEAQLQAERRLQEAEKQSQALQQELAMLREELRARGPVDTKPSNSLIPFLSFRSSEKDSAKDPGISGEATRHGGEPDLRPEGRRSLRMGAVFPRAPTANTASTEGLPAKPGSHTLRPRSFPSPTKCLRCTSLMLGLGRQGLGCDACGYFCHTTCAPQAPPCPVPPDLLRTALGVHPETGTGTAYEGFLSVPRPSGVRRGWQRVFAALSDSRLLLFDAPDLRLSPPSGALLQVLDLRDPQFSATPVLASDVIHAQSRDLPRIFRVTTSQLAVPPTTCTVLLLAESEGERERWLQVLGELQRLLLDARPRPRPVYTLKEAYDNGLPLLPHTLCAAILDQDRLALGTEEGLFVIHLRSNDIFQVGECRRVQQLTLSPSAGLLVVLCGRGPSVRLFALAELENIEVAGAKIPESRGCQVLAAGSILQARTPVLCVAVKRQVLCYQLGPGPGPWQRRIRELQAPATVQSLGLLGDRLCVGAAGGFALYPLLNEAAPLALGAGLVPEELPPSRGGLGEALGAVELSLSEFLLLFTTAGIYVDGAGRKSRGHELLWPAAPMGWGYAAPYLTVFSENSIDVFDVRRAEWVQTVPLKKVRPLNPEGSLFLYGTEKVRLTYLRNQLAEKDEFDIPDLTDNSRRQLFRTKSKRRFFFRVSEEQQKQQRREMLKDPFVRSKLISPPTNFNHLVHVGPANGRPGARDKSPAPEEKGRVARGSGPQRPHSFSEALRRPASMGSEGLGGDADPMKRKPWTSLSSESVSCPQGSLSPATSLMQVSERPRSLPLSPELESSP
MAP3K3, sequence (Q99759 whole entry): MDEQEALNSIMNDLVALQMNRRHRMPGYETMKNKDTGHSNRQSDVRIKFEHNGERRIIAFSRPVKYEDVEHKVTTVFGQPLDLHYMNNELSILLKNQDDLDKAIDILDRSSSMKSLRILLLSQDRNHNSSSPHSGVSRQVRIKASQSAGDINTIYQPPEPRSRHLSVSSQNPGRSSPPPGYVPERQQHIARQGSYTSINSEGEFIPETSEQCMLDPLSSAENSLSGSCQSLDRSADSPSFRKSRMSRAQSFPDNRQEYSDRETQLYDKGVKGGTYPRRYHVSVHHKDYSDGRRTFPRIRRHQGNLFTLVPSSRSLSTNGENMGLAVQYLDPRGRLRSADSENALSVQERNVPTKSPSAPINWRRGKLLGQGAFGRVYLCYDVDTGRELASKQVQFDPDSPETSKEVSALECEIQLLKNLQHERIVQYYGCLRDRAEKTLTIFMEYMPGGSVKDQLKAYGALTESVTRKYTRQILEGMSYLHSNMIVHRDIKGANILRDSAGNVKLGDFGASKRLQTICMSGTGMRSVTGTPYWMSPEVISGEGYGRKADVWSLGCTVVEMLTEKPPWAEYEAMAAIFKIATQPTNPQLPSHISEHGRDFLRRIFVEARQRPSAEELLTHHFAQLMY
ACVR2A, sequence (P27037 whole entry): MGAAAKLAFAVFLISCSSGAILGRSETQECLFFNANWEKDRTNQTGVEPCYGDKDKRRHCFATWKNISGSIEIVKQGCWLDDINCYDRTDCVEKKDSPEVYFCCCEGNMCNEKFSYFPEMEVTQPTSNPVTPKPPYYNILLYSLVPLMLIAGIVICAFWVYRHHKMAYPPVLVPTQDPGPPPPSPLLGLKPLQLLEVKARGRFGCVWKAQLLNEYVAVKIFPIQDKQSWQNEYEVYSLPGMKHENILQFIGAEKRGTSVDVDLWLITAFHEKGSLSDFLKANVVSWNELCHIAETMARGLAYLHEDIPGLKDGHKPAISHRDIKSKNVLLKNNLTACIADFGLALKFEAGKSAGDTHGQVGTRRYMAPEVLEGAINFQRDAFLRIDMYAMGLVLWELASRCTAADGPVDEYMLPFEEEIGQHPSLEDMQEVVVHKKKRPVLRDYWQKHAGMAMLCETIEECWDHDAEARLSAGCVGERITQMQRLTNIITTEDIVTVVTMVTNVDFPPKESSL
T5 sequence (Q16539 whole entry): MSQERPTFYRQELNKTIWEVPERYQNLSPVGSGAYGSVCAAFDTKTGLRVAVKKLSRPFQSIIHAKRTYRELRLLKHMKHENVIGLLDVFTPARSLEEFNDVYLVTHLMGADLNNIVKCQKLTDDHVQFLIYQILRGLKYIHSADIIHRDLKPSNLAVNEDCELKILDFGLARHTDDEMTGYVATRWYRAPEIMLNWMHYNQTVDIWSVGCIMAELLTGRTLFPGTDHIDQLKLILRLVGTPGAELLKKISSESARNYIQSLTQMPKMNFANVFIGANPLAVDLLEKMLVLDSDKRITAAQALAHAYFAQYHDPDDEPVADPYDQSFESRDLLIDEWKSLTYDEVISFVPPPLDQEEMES

## O=C(/C=C/c1cnccc1-c1ccc(F)cc1)Nc1ccc(CCc2nnco2)cc1 [T-418, (2E)-3-(4-(4-fluorophenyl)pyridin-3-yl)-N-(4-(2-(1,3,4-oxadiazol-2-yl)ethyl)phenyl)acrylamide]
DMPK2; sheet T-418
  remaining binding at 0.3 µM: 71%
MRCKA; sheet T-418
  remaining binding at 0.3 µM: 100%
CDKL2; sheet T-418
  remaining binding at 0.3 µM: 100%
RIPK4; sheet T-418
  remaining binding at 0.3 µM: 100%
ACVR2B; sheet T-418
  remaining binding at 0.3 µM: 80%
SRMS; sheet T-418
  remaining binding at 0.3 µM: 100%
ICK; sheet T-418
  remaining binding at 0.3 µM: 100%
YANK2; sheet T-418
  remaining binding at 0.3 µM: 78%
PIK3CA; sheet T-418
  remaining binding at 0.3 µM: 84%
p38-alpha; sheet T-418
  remaining binding at 0.3 µM: 100%
[1]; sheet T-418
  remaining binding at 0.3 µM: 79%
TEC; sheet T-418
  remaining binding at 0.3 µM: 98%
MAP3K3; sheet T-418
  remaining binding at 0.3 µM: 94%
RIOK3; sheet T-418
  remaining binding at 0.3 µM: 78%
NEK2; sheet T-418
  remaining binding at 0.3 µM: 100%
MYLK2; sheet T-418
  remaining binding at 0.3 µM: 62%
FGFR3(G697C); sheet T-418
  remaining binding at 0.3 µM: 66%
RIOK2; sheet T-418
  remaining binding at 0.3 µM: 99%
YANK3; sheet T-418
  remaining binding at 0.3 µM: 100%
ITK; sheet T-418
  remaining binding at 0.3 µM: 100%
ACVR2A; sheet T-418
  remaining binding at 0.3 µM: 91%
PFCDPK1(P.falciparum); sheet T-418
  remaining binding at 0.3 µM: 100%

## Cc1ncccc1Oc1sc(C(N)=O)c2c1-c1c(cnn1C)CC2 [T-474, 1-methyl-8-((2-methylpyridin-3-yl)oxy)-4,5-dihydro-1H-thieno[3,4-g]indazole-6-carboxamide]
DMPK2
  remaining binding at 0.3 µM: 87%
MRCKA
  remaining binding at 0.3 µM: 100%
CDKL2
  remaining binding at 0.3 µM: 100%
RIPK4
  remaining binding at 0.3 µM: 100%
ACVR2B
  remaining binding at 0.3 µM: 81%
SRMS
  remaining binding at 0.3 µM: 100%
ICK
  remaining binding at 0.3 µM: 100%
YANK2
  remaining binding at 0.3 µM: 100%
PIK3CA
  remaining binding at 0.3 µM: 92%
p38-alpha
  remaining binding at 0.3 µM: 99%
[1]
  remaining binding at 0.3 µM: 100%
TEC
  remaining binding at 0.3 µM: 100%
MAP3K3
  remaining binding at 0.3 µM: 100%
RIOK3
  remaining binding at 0.3 µM: 74%
NEK2
  remaining binding at 0.3 µM: 100%
MYLK2
  remaining binding at 0.3 µM: 92%
FGFR3(G697C)
  remaining binding at 0.3 µM: 59%
RIOK2
  remaining binding at 0.3 µM: 87%
YANK3
  remaining binding at 0.3 µM: 100%
ITK
  remaining binding at 0.3 µM: 100%
ACVR2A
  remaining binding at 0.3 µM: 87%
PFCDPK1(P.falciparum)
  remaining binding at 0.3 µM: 100%

Source: publication PMC5862592, “CDK8/19 inhibition induces premature G1/S transition and ATR-dependent cell death in prostate cancer cells” (Oncotarget, 2018)
